As a reminder, the melting point is the temperature of the solid-liquid transition. By IC50 is commonly meant the concentration at which inhibition is half-maximal.

In series [1] the test system is non-tumorigenic MCF-10A cells. The series is described as follows: Cytotoxicity against normal non-tumorigenic MCF-10A cells (MTT). The conditions noted are these: MCF-10A vs MCF-7. It counts as cell-based. From the text: (§1) Following the synthesis of the new bis-dipeptide derivatives, we evaluated the anticancer potentials of these derivatives in vitro against breast cancer cells (MCF-7) as well as normal non tumorigenic MCF-10A cells. The obtained results were expressed as IC50 values in µM and were also compared for both cell lines with positive reference controls; that is cisplatin and milaplatin. Generally, it can be seen that our newly synthesized bis-dipeptides have potential anticancer activities against MCF-7 cells.
The fact that normal cells are usually less affected by possible anticancer candidates may be attributed to the fact that, upon cancer initiation and development, cancer cells overcome normal growth regulation pathways present in normal cells, and thusthey tend to be affected by other different regulatory growth pathways, which are not evident in the case of normal cells.
(§2) The results were expressed as IC50. Experiments were repeated at least in triplicate, to obtain good reproducibility between replicate wells with standard errors below 10%. Furthermore, the cytotoxic effects of the prepared derivatives were evaluated against normal nonmalignant cells, non-tumorigenic MCF-10A, in order to find out if the synthesized derivatives have toxicity against normal cells. Additionally, the results were compared with reference compounds (cisplatin and milaplatin) as positive controls.

The subject of series [2] is breast cancer cells (MCF-7). The series is described as follows: In vitro cytotoxic activity against MCF-7 cancer cells (MTT). The conditions noted are these: for IC50: MCF-7, MTT. It counts as cell-based, human.
Text: as §1
Human breast cancer (MCF-7) cells, obtained from Sigma-Aldrich Chemie GmbH, Taufkirchen, Germany, were propagated in RPMI-1640 supplemented with 10% heat inactivated FBS, 2 mM L-glutamine, and 1% standard antibiotic solution. Cells were incubated in a 5% CO2humidified incubator at 37 °C and passaged bi-weekly. The in vitro anti-proliferative activity of the newly synthesized derivatives was assayed using the standard MTT technique.
as §2

Series [3] has as its system p53 ubiquitination. The series is described as follows: In vitro p53 ubiquitination inhibition. It counts as biochemical. The conditions noted are these: read-out: in vitro IC50, suppression of p53 ubiquitination. From the text:
(§3) Several cancer prevention drugs depend mainly on the ubiquitination activities against p53 as a suppressor protein. When E3 ubiquitin protein ligase HDM2 binds to p53, the resulting mechanism is the inhibition of its ability as a transcription activator. Accordingly, the regulative mechanism is acting negatively. Therefore, blocking the p53 binding site on HDM2 provides for a better possible antitumorigenic molecule. Currently, murine double minute 2 (MDM2) is considered as the regulator of choice when it comes to investigatingp53 inhibition.
(§4) Different prepared derivatives 4–6 were evaluated for their inhibitory potential against p53 ubiquitination according to the previously reported procedure.

Series [4] deals with T1, recombinant human LDHA protein (Homo sapiens, UniProt P00338).
T1 construct: purchased Abcam ab93699
The series is described as follows: LDHA inhibition assay (colorimetric NADH kit). It counts as biochemical. Conditions: recombinant human LDHA. The procedure: The newly synthesized compounds 4–6 were evaluated for their ability to inhibit LDHA in comparison with galloflavin as a known isoform nonselective LDHA inhibitor [44, 45]. The choice of galloflavin as a reference was based on the fact that it is potent anticancer agent and commercially available.
Lactate dehydrogenase assay kit (Abcam, ab102526) and recombinant human LDHA protein (Abcam, ab93699) were used to assess the inhibitory effect of the tested compounds. First, we generated an NADH standard curve for colorimetric detection by measuring the OD (450 nm) at different molar amounts of NADH. The linear regression equation of the curve was derivatized in Graphpad Prism. Tested compounds were dissolved in DMSO and their inhibitory activity was assessed at 140 and 300 μM strength. Galloflavin (Sigma, SML0776) at the same molar concentration was used as a known LDH inhibitor. The master reaction mix composed of LDH assay buffer and 10 ng human LDHA […] per reaction was prepared. Tested compounds were added and the final reaction volume was adjusted to 50 μL. Absorbance at 450 nm was taken after 2–3 min (T-initial) and continued every minute for 118 min (T-final). The change in measurement over time (delta A450) was calculated as T-final minus T-initial. The amount of NADH generated by the assay between T-initial and T-final was deduced by comparing the A450 of each sample to the standard NADH standard curve. LDHA activity was calculated in milliunits per mL as the amount of NADH generated by the assay / (reaction time in minutes (118) x reaction volume in mL ([…]).

In series [5] the test system is p53 ubiquitination. The series is described as follows: In vivo p53 ubiquitination inhibition. Conditions: read-out: in vivo IC50, suppression of p53 ubiquitination.
Text: as §3, §4

Regarding `CC(=NNC(=O)C(CC(C)C)NC(=O)C(Cc1ccccc1)NC(=O)c1cncc(C(=O)NC(Cc2ccccc2)C(=O)NC(CC(C)C)C(=O)NN=C(C)c2ccncc2)c1)c1ccncc1` (stereo not drawn) (hydrate or solvate) [4c, N^3,N^5-Bis{1-[(4-methyl-1-oxo-1-(2-(1-(pyridin-4-yl)ethylidene)hydrazinyl)pentan-2-yl)-amino]-1-oxo-3-phenylpropan-2-yl}pyridine-3,5-dicarboxamide], the melting point was 196 to 198 °C.
The compound `CC(C)CC(NC(=O)C(Cc1ccccc1)NC(=O)c1cncc(C(=O)NC(Cc2ccccc2)C(=O)NC(CC(C)C)C(=O)NN=C2CCCC2)c1)C(=O)NN=C1CCCC1` (stereo not drawn) [3a, N^3,N^5-Bis{1-[(1-(2-cyclopentylidenehydrazinyl)-4-methyl-1-oxopentan-2-yl]amino)-1-oxo-3-phenylpropan-2-yl}pyridine-3,5-dicarboxamide] had a melting point of 232 to 234 °C.
The same measure, in the same setting: next, `CC(=NNC(=O)C(CC(C)C)NC(=O)C(Cc1ccccc1)NC(=O)c1cncc(C(=O)NC(Cc2ccccc2)C(=O)NC(CC(C)C)C(=O)NN=C(C)c2ccccn2)c1)c1ccccn1` (stereo not drawn) (hydrate or solvate) [4a, N^3,N^5-Bis{1-[(4-methyl-1-oxo-1-(2-(1-(pyridin-2-yl)ethylidene)hydrazinyl)pentan-2-yl)amino]-1-oxo-3-phenylpropan-2-yl}pyridine-3,5-dicarboxamide]: 216 to 218 °C.
For `CC(=NNC(=O)C(CC(C)C)NC(=O)C(Cc1ccccc1)NC(=O)c1cncc(C(=O)NC(Cc2ccccc2)C(=O)NC(CC(C)C)C(=O)NN=C(C)c2cccnc2)c1)c1cccnc1` (stereo not drawn) [4b, N^3,N^5-Bis{1-[(4-methyl-1-oxo-1-(2-(1-(pyridin-3-yl)ethylidene)hydrazinyl)pentan-2-yl)-amino]-1-oxo-3-phenylpropan-2-yl}pyridine-3,5-dicarboxamide], the “fold higher IC50 against MCF-10A than MCF-7” value in series [1] is “about 142.7 fold”. This compound registered a concentration for half-maximal inhibition (IC50) in series [2] (Homo sapiens, MCF7) of 8.12 ± 0.14 µM. The “more active than cisplatin against MCF-7” value in series [2] (MCF-7, vs cisplatin) is “about 39.1%”. Moreover, in series [2] (MCF-7, vs milaplatin), the “more active than milaplatin against MCF-7” value is on record as around 55.9%.
On to `CC(C)CC(NC(=O)C(Cc1ccccc1)NC(=O)c1cncc(C(=O)NC(Cc2ccccc2)C(=O)NC(CC(C)C)C(=O)NN=C2CCCCC2)c1)C(=O)NN=C1CCCCC1` (stereo not drawn) [3b, N^3,N^5-Bis{1-[(1-(2-cyclohexylidenehydrazinyl)-4-methyl-1-oxopentan-2-yl)amino]-1-oxo-3-phenylpropan-2-yl}pyridine-3,5-dicarboxamide], for which the melting point is 198 to 200 °C.
As to “N^3,N^5-Bis{1-[(1-(2-(1-(4-methoxyphenyl)ethylidene)hydrazinyl)-4-methyl-1-oxopentan-2-yl)-amino]-1-oxo-3-phenylpropan-2-yl}pyridine-3,5-dicarboxamide [5a]”, in series [1], the “fold higher IC50 against MCF-10A than MCF-7” value is around 145.9 fold. Also, the half-maximal inhibitory concentration (IC50) worked out at 44.33 ± 0.34 µM in the series on p53 ubiquitination [3] and 17.6 ± 0.27 µM in series [2].
For the compound `O=c1oc2c(cc1O)oc(=O)c1cc(O)c(O)c(O)c12` [galloflavin, reference compound], in series [4], the IC50 was found to be 161.1 ± 0.32 µM.
Compound `CC(=NNC(=O)C(CC(C)C)NC(=O)C(Cc1ccccc1)NC(=O)c1cncc(C(=O)NC(Cc2ccccc2)C(=O)NC(CC(C)C)C(=O)NN=C(C)c2cccnc2)c1)c1cccnc1` (stereo not drawn) (hydrate or solvate) [4b, N^3,N^5-Bis{1-[(4-methyl-1-oxo-1-(2-(1-(pyridin-3-yl)ethylidene)hydrazinyl)pentan-2-yl)-amino]-1-oxo-3-phenylpropan-2-yl}pyridine-3,5-dicarboxamide] displayed a melting point of 208 to 210 °C.
For the compound milaplatin [reference compound], in series [2], half-maximal inhibition (IC50) required 18.43 ± 0.13 µM.
As for `CC(C)CC(NC(=O)C(Cc1ccccc1)NC(=O)c1cncc(C(=O)NC(Cc2ccccc2)C(=O)NC(CC(C)C)C(=O)NN=C2CCCCCC2)c1)C(=O)NN=C1CCCCCC1` (stereo not drawn) [3c, N^3,N^5-Bis{1-[(1-(2-cycloheptylidenehydrazinyl)-4-methyl-1-oxopentan-2-yl)amino]-1-oxo-3-phenylpropan-2-yl}pyridine-3,5-dicarboxamide], the melting point lay in the range of 221 to 223 °C.
In the case of `CC(=NNC(=O)C(CC(C)C)NC(=O)C(Cc1ccccc1)NC(=O)c1cncc(C(=O)NC(Cc2ccccc2)C(=O)NC(CC(C)C)C(=O)NN=C(C)c2ccc([N+](=O)[O-])cc2)c1)c1ccc([N+](=O)[O-])cc1` (stereo not drawn) (hydrate or solvate) [5e, N^3,N^5-Bis{1-[(4-methyl-1-(2-(1-(4-nitrophenyl)ethylidene)hydrazinyl)-1-oxopentan-2-yl)-amino]-1-oxo-3-phenylpropan-2-yl}pyridine-3,5-dicarboxamide], the melting point lay in the range of 256 to 258 °C.
With `CC(C)CC(NC(=O)C(Cc1ccccc1)NC(=O)c1cncc(C(=O)NC(Cc2ccccc2)C(=O)NC(CC(C)C)C(=O)NN=Cc2cccs2)c1)C(=O)NN=Cc1cccs1` (stereo not drawn) [6b, N^3,N^5-bis{1-[(4-methyl-1-oxo-1-(2-(thiophen-2-ylmethylene)hydrazinyl)pentan-2-yl)amino]-1-oxo-3-phenylpropan-2-yl}pyridine-3,5-dicarboxamide], the melting point lay in the range of 218 to 220 °C.
On the same count and under the same terms, next, `CC(C)CC(NC(=O)C(Cc1ccccc1)NC(=O)c1cncc(C(=O)NC(Cc2ccccc2)C(=O)NC(CC(C)C)C(=O)NN=C2CCCCCCC2)c1)C(=O)NN=C1CCCCCCC1` (stereo not drawn) [3d, N^3,N^5-Bis{1-[(1-(2-cyclooctylidenehydrazinyl)-4-methyl-1-oxopentan-2-yl)amino]-1-oxo-3-phenylpropan-2-yl}pyridine-3,5-dicarboxamide]: 242 to 244 °C.
`N.N.[Cl][Pt][Cl]` [cisplatin, reference compound]: in series [2], the midpoint of inhibition, the IC50, lay at 13.34 ± 0.11 µM.
Take `CC(C)CC(NC(=O)C(Cc1ccccc1)NC(=O)c1cncc(C(=O)NC(Cc2ccccc2)C(=O)NC(CC(C)C)C(=O)NN=Cc2ccco2)c1)C(=O)NN=Cc1ccco1` (stereo not drawn) [6a, N^3,N^5-bis{1-[(1-(2-(furan-2-ylmethylene)hydrazinyl)-4-methyl-1-oxopentan-2-yl)amino]-1-oxo-3-phenylpropan-2-yl}pyridine-3,5-dicarboxamide]: the melting point was 205 to 207 °C. For the same compound, in the series on p53 ubiquitination [5], the IC50 is 0.31 ± 0.001 µM.

Values taken from PMC7179198, “Chiral Pyridine-3,5-bis- (L-phenylalaninyl-L-leucinyl) Schiff Base Peptides as Potential Anticancer Agents: Design, Synthesis, and Molecular Docking Studies Targeting Lactate Dehydrogenase-A” (Molecules, 2020).
